Measured values reported in patent US20240101546A1, “HETEROARYL-ACETYLENES, PHARMACEUTICAL COMPOSITIONS THEREOF, AND THEIR THERAPEUTIC APPLICATIONS” (Eubulus Biotherapeutics Inc., priority 2020, published 2024).

What follows are molecules tested on hepatocellular carcinoma cell line Hub-7 (assay: Cell proliferation assay, Hub-7 (CELL-TITER GLO)). Conditions: Hub-7 cells, 24 h incubation, cell viability by CELL-TITER GLO, top concentration 10 μM; read-out: EC50, Inhibition of Hub-7 Cell Proliferation.
Type: cell-based
Procedure: The activity of a compound was determined in a cell proliferation assay using the hepatocellular carcinoma cell line Hub-7. Cells (4,000 cells per well) were seeded in a 96-well tissue culture plate. After incubated overnight, the compound was added at predetermined concentrations, starting with 10 μM and followed by 3-fold serial dilution. After the cells were incubated for 24 h, cell viability was determined using a CELL-TITER GLO® assay. The CELL-TITER GLO® reagent (50 μL) was added to each well and the luminescence was measured by a multimode microplate reader after a brief period of shaking. EC50 values were determined for the compound. The results are summarized in Table 1, wherein A represents a value no greater than 200 nM, B represents a value greater than 200 nM but no greater than 1 μM, C represents a value greater than 1 μM but no greater than 5 μM, and D represents a value greater than 5 μM.

Compound | EC50
C#Cc1nc(C(=O)NCCc2ccc(-c3cccc4c3C(=O)CC4)cc2)cs1 [Compound C18, 2-Ethynyl-N-(4-(3-oxo-2,3-dihydro-1H-inden-4-yl)phenethyl)thiazole-4-carboxamide] | 200 to 1000 nM
C#Cc1nc(C(=O)NCCc2ccc(-c3cncc4ncsc34)cc2)cs1 [Compound C19, 2-Ethynyl-N-(4-(thiazolo[4,5-c]pyridin-7-yl)phenethyl)thiazole-4-carboxamide] | 200 to 1000 nM
C#Cc1nc(C(=O)NCCc2ccc(-c3ccccc3S(=O)(=O)NC)cc2)cs1 [Compound C20, 2-Ethynyl-N-(2-(2′-(N-methylsulfamoyl)-[1,1′-biphenyl]-4-yl)ethyl)thiazole-4-carboxamide] | 200 to 1000 nM
C#Cc1nc(C(=O)NCCc2ccc(-c3cccc4cnccc34)cc2)cs1 [Compound C21, 2-Ethynyl-N-(4-(isoquinolin-5-yl)phenethyl)thiazole-4-carboxamide] | ≤ 200 nM
C#Cc1nc(C(=O)NCCc2ccc(-c3cccc4c3CN(C)C4=O)cc2)cs1 [Compound C22, 2-Ethynyl-N-(4-(2-methyl-1-oxoisoindolin-4-yl)phenethyl)thiazole-4-carboxamide] | 200 to 1000 nM
C#Cc1nc(C(=O)NCCc2ccc(-c3cccc4ncccc34)cc2)cs1 [Compound C23, 2-Ethynyl-N-(4-(quinolin-5-yl)phenethyl)thiazole-4-carboxamide] | 200 to 1000 nM
C#Cc1nc(C(=O)NCCc2ccc(-c3cccc4ncncc34)cc2)cs1 [Compound C24, 2-Ethynyl-N-(4-(quinazolin-5-yl)phenethyl)thiazole-4-carboxamide] | ≤ 200 nM
C#Cc1nc(C(=O)NCCc2ccc(-c3ccc4scnc4c3)cc2)cs1 [Compound C25, N-(4-(Benzo[d]thiazol-5-yl)phenethyl)-2-ethynylthiazole-4-carboxamide] | 200 to 1000 nM
C#Cc1nc(C(=O)NCCc2cccc(-c3cccc4c3CC(=O)N4C)c2)cs1 [Compound C26, 2-Ethynyl-N-(3-(1-methyl-2-oxoindolin-4-yl)phenethyl)thiazole-4-carboxamide] | 1000 to 5000 nM
C#Cc1nc(C(=O)NCCc2cccc(-c3cccc4c3CC(=O)N4)c2)cs1 [Compound C27, 2-Ethynyl-N-(3-(2-oxoindolin-4-yl)phenethyl)thiazole-4-carboxamide] | 200 to 1000 nM
C#Cc1nc(C(=O)NCc2ccc(-c3cccc4[nH]ccc34)cc2)cs1 [Compound C28, N-(4-(1H-Indol-4-yl)benzyl)-2-ethynylthiazole-4-carboxamide] | 1000 to 5000 nM
C#Cc1nc(C(=O)NCCc2cccc(-c3cccc4nn(C)cc34)c2)cs1 [Compound C29, 2-Ethynyl-N-(3-(2-methyl-2H-indazol-4-yl)phenethyl)thiazole-4-carboxamide] | 200 to 1000 nM
C#Cc1nc(C(=O)NCCc2cccc(-c3cccc4c3cnn4C)c2)cs1 [Compound C30, 2-Ethynyl-N-(3-(1-methyl-1H-indazol-4-yl)phenethyl)thiazole-4-carboxamide] | 1000 to 5000 nM
C#Cc1nc(C(=O)NCCc2ccc(-c3cccc4scnc34)cc2)cs1 [Compound C31, N-(4-(Benzo[d]thiazol-4-yl)phenethyl)-2-ethynylthiazole-4-carboxamide] | 200 to 1000 nM
C#Cc1nc(C(=O)NCCc2ccc(-c3cccc4nn(C)cc34)cc2)cs1 [Compound C32, 2-Ethynyl-N-(4-(2-methyl-2H-indazol-4-yl)phenethyl)thiazole-4-carboxamide] | 200 to 1000 nM
C#Cc1nc(C(=O)NCCc2ccc(-c3cccc4c3cnn4C)cc2)cs1 [Compound C33, 2-Ethynyl-N-(4-(1-methyl-1H-indazol-4-yl)phenethyl)thiazole-4-carboxamide] | 200 to 1000 nM
C#Cc1nc(C(=O)NCCc2ccc(-c3cccc4ncsc34)cc2)cs1 [Compound C34, N-(4-(Benzo[d]thiazol-7-yl)phenethyl)-2-ethynylthiazole-4-carboxamide] | ≤ 200 nM
C#Cc1nc(C(=O)NCCc2cccc(-c3cccc4c3ccn4C)c2)cs1 [Compound C35, 2-Ethynyl-N-(3-(1-methyl-1H-indol-4-yl)phenethyl)thiazole-4-carboxamide] | 200 to 1000 nM
C#Cc1nc(C(=O)NCCc2cccc(-c3cccc4[nH]ccc34)c2)cs1 [Compound C36, N-(3-(1H-Indol-4-yl)phenethyl)-2-ethynylthiazole-4-carboxamide] | 200 to 1000 nM
C#Cc1nc(C(=O)NCc2ccc(-c3cccc4c3CC(=O)N4)cc2)cs1 [Compound C37, 2-Ethynyl-N-(4-(2-oxoindolin-4-yl)benzyl)thiazole-4-carboxamide] | 1000 to 5000 nM
C#Cc1nc(C(=O)NCCc2cccc(-c3cccnc3)c2)cs1 [Compound C38, 2-Ethynyl-N-(3-(pyridin-3-yl)phenethyl)thiazole-4-carboxamide] | 1000 to 5000 nM
C#Cc1nc(C(=O)NCCc2cccc(-c3cccc4[nH]ncc34)c2)cs1 [Compound C39, N-(3-(1H-Indazol-4-yl)phenethyl)-2-ethynylthiazole-4-carboxamide] | 200 to 1000 nM

Compound | EC50
C#Cc1nc(C(=O)NCc2ccc(-c3cccc4[nH]ncc34)cc2)cs1 [Compound C40, N-(4-(1H-Indazol-4-yl)benzyl)-2-ethynylthiazole-4-carboxamide] | 1000 to 5000 nM
C#Cc1nc(C(=O)NCCc2ccc(-c3ccn(C)n3)cc2)cs1 [Compound C41, 2-Ethynyl-N-(4-(1-methyl-1H-pyrazol-3-yl)phenethyl)thiazole-4-carboxamide] | 1000 to 5000 nM
C#Cc1nc(C(=O)NCCc2ccc(-c3ccc4ncsc4c3)cc2)cs1 [Compound C42, N-(4-(Benzo[d]thiazol-6-yl)phenethyl)-2-ethynylthiazole-4-carboxamide] | 200 to 1000 nM
C#Cc1nc(C(=O)NCCc2ccc(-c3cccc4c3CC(=O)N4C)cc2)cs1 [Compound C43, 2-Ethynyl-N-(4-(1-methyl-2-oxoindolin-4-yl)phenethyl)thiazole-4-carboxamide] | 200 to 1000 nM
C#Cc1nc(C(=O)NCc2ccc3ccccc3n2)cs1 [Compound C44, 2-ethynyl-N-(quinolin-2-ylmethyl)thiazole-4-carboxamide] | ≤ 200 nM
C#Cc1nc(C(=O)NCCc2ccccc2C#N)cs1 [Compound C45, N-(2-Cyanophenethyl)-2-ethynylthiazole-4-carboxamide] | 1000 to 5000 nM
C#Cc1nc(C(=O)NCc2cccc(CC(=O)OC)c2)cs1 [Compound C46, Methyl 2-(3-((2-ethynylthiazole-4-carboxamido)methyl)phenyl)acetate] | 200 to 1000 nM
C#Cc1nc(C(=O)NCc2cccc(CC(N)=O)c2)cs1 [Compound C47, N-(3-(2-Amino-2-oxoethyl)benzyl)-2-ethynylthiazole-4-carboxamide] | 1000 to 5000 nM
C#Cc1nc(C(=O)NCCc2ccc(-c3cccc4c3CC(=O)N4)cc2)cs1 [Compound C48, 2-Ethynyl-N-(4-(2-oxoindolin-4-yl)phenethyl)thiazole-4-carboxamide] | 200 to 1000 nM
C#Cc1nc(C(=O)NCCc2ccc(-c3cccc4[nH]ncc34)cc2)cs1 [Compound C49, N-(4-(1H-Indazol-4-yl)phenethyl)-2-ethynylthiazole-4-carboxamide] | ≤ 200 nM
C#Cc1nc(C(=O)NCCc2ccc(-c3cccc4c3ccn4C)cc2)cs1 [Compound C50, 2-Ethynyl-N-(4-(1-methyl-1H-indol-4-yl)phenethyl)thiazole-4-carboxamide] | ≤ 200 nM
C#Cc1nc(C(=O)NCCc2ccc(-c3cccc4[nH]ccc34)cc2)cs1 [Compound C51, N-(4-(1H-Indol-4-yl)phenethyl)-2-ethynylthiazole-4-carboxamide] | 200 to 1000 nM
C#Cc1nc(C(=O)NCc2cccc(Cl)c2)c(C)s1 [Compound C52, N-(3-Chlorobenzyl)-2-ethynyl-5-methylthiazole-4-carboxamide] | 200 to 1000 nM
C#Cc1nc(C(=O)NCCc2ccc(-c3cscn3)cc2)cs1 [Compound C53, 2-Ethynyl-N-(4-(thiazol-4-yl)phenethyl)thiazole-4-carboxamide] | 200 to 1000 nM
C#Cc1nc(C(=O)NCc2ccc(-c3ccn(C)n3)cc2)cs1 [Compound C54, 2-Ethynyl-N-(4-(1-methyl-1H-pyrazol-3-yl)benzyl)thiazole-4-carboxamide] | 200 to 1000 nM
C#Cc1nc(C(=O)NCc2ccc(-c3cscn3)cc2)cs1 [Compound C55, 2-Ethynyl-N-(4-(thiazol-4-yl)benzyl)thiazole-4-carboxamide] | 200 to 1000 nM
C#Cc1nc(C(=O)NCc2cccc(Cl)c2)c(-c2ccccc2)s1 [Compound C56, N-(3-Chlorobenzyl)-2-ethynyl-5-phenylthiazole-4-carboxamide] | 1000 to 5000 nM
C#Cc1nc(C(=O)NCCc2ccc(-c3cncs3)cc2)cs1 [Compound C57, 2-Ethynyl-N-(4-(thiazol-5-yl)phenethyl)thiazole-4-carboxamide] | 200 to 1000 nM
C#Cc1nc(C(=O)NCc2cccc(-c3cn[nH]c3)c2)cs1 [Compound C58, N-(3-(1H-Pyrazol-4-yl)benzyl)-2-ethynylthiazole-4-carboxamide] | 1000 to 5000 nM
C#Cc1nc(C(=O)NCc2cccc(-c3cnn(C)c3)c2)cs1 [Compound C59, 2-Ethynyl-N-(3-(1-methyl-1H-pyrazol-4-yl)benzyl)thiazole-4-carboxamide] | 1000 to 5000 nM
C#Cc1nc(C(=O)NCc2cccc(-c3cc[nH]n3)c2)cs1 [Compound C60, N-(3-(1H-Pyrazol-3-yl)benzyl)-2-ethynylthiazole-4-carboxamide] | 200 to 1000 nM
C#Cc1nc(C(=O)NCc2ccc(-c3cncs3)cc2)cs1 [Compound C61, 2-Ethynyl-N-(4-(thiazol-5-yl)benzyl)thiazole-4-carboxamide] | 200 to 1000 nM
